Measured values reported in paper PMC9574855 (Journal of Medicinal Chemistry, 2022).

Columns and labels:
[1] = tested on: 403 WT human kinases; experiment: DiscoverX scanMAX kinome-wide selectivity at 1 μM; assay type: binding
[2] = biological target: T1, PIKfyve (Homo sapiens, UniProt Q9Y2I7); experiment: biochemical; assay type: biochemical
[3] = tested on: SH-SY5Y cells; experiment: Lysosomal staining; assay type: cell-based, human; details: 5 μM, 24 h
[4] = tested on: lentivirus pseudotyped with the SARS-CoV-2 spike glycoprotein; assay type: cell-based; details: Calu-3 cells, 1 μM
[5] = tested on: bald GFP lentivirus; assay type: cell-based; details: Calu-3 cells, 1 μM
[6] = tested on: DBT cells; experiment: LDH cell viability assay in DBT cells; assay type: cell-based, mouse; details: up to 10 μM
[7] = tested on: His6-SARS-CoV-2 spike protein uptake by Caco-2 cells; experiment: Spike uptake assay in Caco-2 cells; assay type: cell-based; details: 1 μM
[8] = tested on: His6-SARS-CoV-2 spike protein uptake by HEK293T-ACE2 cells; experiment: Spike uptake assay in HEK293T-ACE2 cells; assay type: cell-based, human; details: 1 μM
[9] = biological target: T1, PIKfyve; experiment: cell-based
[10] = tested on: His6-SARS-CoV-2 spike protein uptake by Calu-3 cells; experiment: Spike uptake assay in Calu-3 cells; assay type: cell-based; details: 1 μM
[11] = biological target: T2, MYLK4 (Homo sapiens, UniProt Q86YV6); experiment: NanoBRET assay; assay type: cell-based
T2 sequence (Q86YV6 1-388): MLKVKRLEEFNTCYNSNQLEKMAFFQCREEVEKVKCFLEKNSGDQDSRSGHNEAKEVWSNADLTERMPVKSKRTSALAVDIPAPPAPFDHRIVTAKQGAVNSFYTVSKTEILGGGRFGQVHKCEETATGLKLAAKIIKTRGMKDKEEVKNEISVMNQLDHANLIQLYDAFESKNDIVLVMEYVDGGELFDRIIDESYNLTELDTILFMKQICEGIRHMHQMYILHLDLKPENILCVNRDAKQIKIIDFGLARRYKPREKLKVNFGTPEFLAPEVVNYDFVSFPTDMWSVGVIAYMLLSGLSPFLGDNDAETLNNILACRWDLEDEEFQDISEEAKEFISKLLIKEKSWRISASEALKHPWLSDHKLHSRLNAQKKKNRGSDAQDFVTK

[12] = tested on: small panel of understudied kinases; experiment: Eurofins enzymatic profiling in targeted kinase panel; assay type: biochemical, human; details: 1 μM, Table S2 panel
[13] = tested on: MHV-nLuc virus; experiment: microbe, parasite or virus in culture; assay type: cell-based, mouse hepatitis virus (MHV); details: for inhibition of viral replication (MHV-nLuc), in words: DBT cells; for IC50: Murine coronavirus, read-out: MHV replication pIC50 (converted)
[14] = tested on: SARS-CoV-2-nLuc; experiment: microbe, parasite or virus in culture; assay type: cell-based
[15] = tested on: A549-ACE2 cells; details: LDH assay
[16] = PIKfyve NB IC50, NanoBRET, HEK293 cells

T1 sequence (Q9Y2I7 whole entry): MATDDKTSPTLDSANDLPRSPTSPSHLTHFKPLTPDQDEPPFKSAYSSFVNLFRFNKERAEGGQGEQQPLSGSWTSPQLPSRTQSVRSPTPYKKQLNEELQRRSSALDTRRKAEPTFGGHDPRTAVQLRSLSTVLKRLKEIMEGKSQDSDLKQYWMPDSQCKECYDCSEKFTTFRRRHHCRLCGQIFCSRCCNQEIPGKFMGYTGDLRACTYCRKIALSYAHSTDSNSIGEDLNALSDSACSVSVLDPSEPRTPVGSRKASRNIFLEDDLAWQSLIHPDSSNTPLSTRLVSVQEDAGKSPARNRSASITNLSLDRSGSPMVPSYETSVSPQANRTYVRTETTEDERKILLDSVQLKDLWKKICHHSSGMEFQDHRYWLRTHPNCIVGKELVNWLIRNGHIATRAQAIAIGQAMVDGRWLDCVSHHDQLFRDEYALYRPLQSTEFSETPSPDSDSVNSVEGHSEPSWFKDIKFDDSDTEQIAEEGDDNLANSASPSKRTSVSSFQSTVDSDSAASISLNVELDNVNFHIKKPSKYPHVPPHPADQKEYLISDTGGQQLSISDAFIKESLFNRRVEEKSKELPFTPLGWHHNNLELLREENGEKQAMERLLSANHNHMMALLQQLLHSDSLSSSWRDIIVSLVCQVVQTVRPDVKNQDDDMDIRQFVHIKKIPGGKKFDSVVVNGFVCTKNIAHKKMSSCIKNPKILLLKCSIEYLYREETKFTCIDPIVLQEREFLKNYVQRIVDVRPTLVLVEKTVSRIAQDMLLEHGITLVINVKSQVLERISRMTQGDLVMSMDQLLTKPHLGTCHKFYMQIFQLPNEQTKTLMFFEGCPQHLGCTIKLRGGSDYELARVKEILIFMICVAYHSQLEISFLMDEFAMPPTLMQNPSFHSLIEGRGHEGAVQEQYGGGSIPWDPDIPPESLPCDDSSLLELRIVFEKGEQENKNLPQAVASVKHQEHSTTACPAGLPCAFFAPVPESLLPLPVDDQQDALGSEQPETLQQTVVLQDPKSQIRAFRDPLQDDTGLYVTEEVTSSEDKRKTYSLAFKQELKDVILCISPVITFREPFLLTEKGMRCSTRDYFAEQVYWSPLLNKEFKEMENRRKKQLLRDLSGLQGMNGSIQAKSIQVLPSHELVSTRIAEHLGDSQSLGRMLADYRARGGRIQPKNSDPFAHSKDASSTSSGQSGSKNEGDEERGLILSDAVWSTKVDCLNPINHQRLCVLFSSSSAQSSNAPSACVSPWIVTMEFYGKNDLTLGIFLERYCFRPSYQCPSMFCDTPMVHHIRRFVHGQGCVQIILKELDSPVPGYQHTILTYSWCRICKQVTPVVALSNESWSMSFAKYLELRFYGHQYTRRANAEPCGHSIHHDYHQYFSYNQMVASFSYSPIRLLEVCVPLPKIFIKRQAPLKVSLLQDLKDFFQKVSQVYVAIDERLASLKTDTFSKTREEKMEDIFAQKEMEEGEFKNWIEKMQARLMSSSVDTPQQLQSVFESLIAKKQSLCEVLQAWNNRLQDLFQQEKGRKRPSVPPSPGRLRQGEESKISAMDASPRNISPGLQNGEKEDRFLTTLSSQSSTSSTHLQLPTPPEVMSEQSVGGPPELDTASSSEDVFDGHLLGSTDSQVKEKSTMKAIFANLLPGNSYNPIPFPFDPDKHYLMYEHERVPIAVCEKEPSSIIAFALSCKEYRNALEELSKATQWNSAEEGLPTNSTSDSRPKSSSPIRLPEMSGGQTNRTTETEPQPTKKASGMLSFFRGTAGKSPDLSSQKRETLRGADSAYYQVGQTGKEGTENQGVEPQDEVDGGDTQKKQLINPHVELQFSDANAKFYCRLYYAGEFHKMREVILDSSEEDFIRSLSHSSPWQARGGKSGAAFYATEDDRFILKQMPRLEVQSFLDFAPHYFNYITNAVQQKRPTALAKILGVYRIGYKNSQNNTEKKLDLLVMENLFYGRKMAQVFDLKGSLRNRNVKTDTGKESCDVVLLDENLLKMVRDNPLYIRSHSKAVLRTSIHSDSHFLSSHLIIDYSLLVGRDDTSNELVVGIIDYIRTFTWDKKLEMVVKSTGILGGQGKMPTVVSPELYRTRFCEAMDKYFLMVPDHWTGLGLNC

Structure (SMILES): CC(C)C(O)C#Cc1ccc2[nH]c3c(c2c1)-c1nc(N)ncc1CCC3 (stereo not shown) [compound 11, 1-(2-Amino-5,6,7,8-tetrahydropyrimido[4′,5′:3,4]cyclohepta[1,2-b]indol-11-yl)-4-methylpent-1-yn-3-ol]
- # scanMAX kinases with PoC < 10 [1]: 7

Structure (SMILES): Cn1cncc1C#Cc1ccc2[nH]c3c(c2c1)-c1nc(N)ncc1CCCC3 [compound 27, 12-((1-Methyl-1H-imidazol-5-yl)ethynyl)-6,7,8,9-tetrahydro-5H-pyrimido[4′,5′:3,4]cycloocta[1,2-b]indol-2-amine]
- # scanMAX kinases with PoC < 10 [1]: 0

Structure (SMILES): CC(C)(O)C#Cc1ccc2[nH]cc(-c3ccnc(N)n3)c2c1 [compound 3, 4-(3-(2-Aminopyrimidin-4-yl)-1H-indol-5-yl)-2-methylbut-3-yn-2-ol]
- # scanMAX kinases with PoC < 10 [1]: 34

Structure (SMILES): CC(C)(O)CC#Cc1ccc2[nH]c3c(c2c1)-c1nc(N)ncc1CCC3 [compound 24, 5-(2-Amino-5,6,7,8-tetrahydropyrimido[4′,5′:3,4]cyclohepta[1,2-b]indol-11-yl)-2-methylpent-4-yn-2-ol]
- # scanMAX kinases with PoC < 10 [1]: 11–14

Structure (SMILES): CN(C)CC#Cc1ccc2[nH]c3c(c2c1)-c1nc(N)ncc1CCCC3 [compound 29, 12-(3-(Dimethylamino)prop-1-yn-1-yl)-6,7,8,9-tetrahydro-5H-pyrimido[4′,5′:3,4]cycloocta[1,2-b]indol-2-amine]
- # scanMAX kinases with PoC < 10 [1]: 0

Structure (SMILES): CN(C)CC#Cc1ccc2[nH]c3c(c2c1)-c1nc(N)ncc1CCC3 [compound 17, 11-(3-(Dimethylamino)prop-1-yn-1-yl)-5,6,7,8-tetrahydropyrimido[4′,5′:3,4]cyclohepta[1,2-b]indol-2-amine]
- IC50 [2]: < 0.1 µM
- vacuoles in LysoTracker-stained cells [3]: vacuoles are present
- entry of lentivirus pseudotyped with SARS-CoV-2 spike glycoprotein [4]: inhibition of pseudoviral entry
- entry of bald lentivirus [5]: entry of bald lentivirus was not impacted
- effect on cell viability in DBT cells [6]: no significant effect on cell viability up to 10 μM
- His6-SARS-CoV-2 spike protein uptake [7]: efficiently reduced spike protein uptake
- His6-SARS-CoV-2 spike protein uptake [8]: significantly reduced spike protein uptake
- IC50 ([9]; PIKfyve NanoBRET IC50, bound stated with SGC probe criteria): < 1 µM
- His6-SARS-CoV-2 spike protein uptake [10]: efficiently reduced spike protein uptake
- IC50 [11]: 0.265 µM

Structure (SMILES): Cn1cc(-c2ccc3[nH]c4c(c3c2)-c2nc(N)ncc2CC4)cn1 [compound 12, 10-(1-Methyl-1H-pyrazol-4-yl)-6,7-dihydro-5H-pyrimido[5,4-c]carbazol-2-amine]
- # scanMAX kinases with PoC < 10 [1]: 7

Structure (SMILES): CC(C)(C#Cc1ccc2[nH]c3c(c2c1)-c1nc(N)ncc1CCC3)CO [compound 23, 4-(2-Amino-5,6,7,8-tetrahydropyrimido[4′,5′:3,4]cyclohepta[1,2-b]indol-11-yl)-2,2-dimethylbut-3-yn-1-ol]
- # scanMAX kinases with PoC < 10 [1]: 11–14

Structure (SMILES): Nc1ncc2c(n1)-c1c([nH]c3ccc(-c4ccc(F)cc4)cc13)CC2 [compound 7, 10-(4-Fluorophenyl)-6,7-dihydro-5H-pyrimido[5,4-c]carbazol-2-amine]
- # scanMAX kinases with PoC < 10 [1]: 3

Structure (SMILES): Nc1ncc2c(n1)-c1c([nH]c3ccc(-c4ccc(F)cc4)cc13)CCC2 [compound 8, 11-(4-Fluorophenyl)-5,6,7,8-tetrahydropyrimido[4′,5′:3,4]cyclohepta[1,2-b]indol-2-amine]
- selectivity over all other kinases evaluated ([2]; versus PIKfyve enzymatic and NanoBRET IC50 values): > 415 fold
- vacuoles in LysoTracker-stained cells [3]: vacuoles are present
- entry of lentivirus pseudotyped with SARS-CoV-2 spike glycoprotein [4]: inhibition of pseudoviral entry
- highest inhibition of any kinase in the targeted enzymatic panel [12]: ≤ 55%
- entry of bald lentivirus [5]: entry of bald lentivirus was not impacted
- # scanMAX kinases with PoC < 10 [1]: 2
- effect on cell viability in DBT cells [6]: no significant effect on cell viability up to 10 μM
- inhibition of viral replication (MHV-nLuc), in words [13]: inhibited viral replication
- His6-SARS-CoV-2 spike protein uptake [8]: significantly reduced spike protein uptake

Structure (SMILES): Nc1ncc2c(n1)-c1c([nH]c3ccc(C#Cc4ccncc4)cc13)CCCC2 [compound 6, 12-(Pyridin-4-ylethynyl)-6,7,8,9-tetrahydro-5H-pyrimido[4′,5′:3,4]cycloocta[1,2-b]indol-2-amine]
- # scanMAX kinases with PoC < 10 [1]: 0

Structure (SMILES): CC(C)(O)C#Cc1ccc2[nH]c3c(c2c1)-c1nc(N)ncc1CCC3 [AMG28, 4-(2-Amino-5,6,7,8-tetrahydropyrimido[4′,5′:3,4]cyclohepta[1,2-b]indol-11-yl)-2-methylbut-3-yn-2-ol, reference compound]
- # scanMAX kinases with PoC < 10 [1]: 21

Structure (SMILES): Nc1ncc2c(n1)-c1c([nH]c3ccc(-c4ccc(F)cc4)cc13)CCCC2 [compound 9, 12-(4-Fluorophenyl)-6,7,8,9-tetrahydro-5H-pyrimido[4′,5′:3,4]cycloocta[1,2-b]indol-2-amine]
- # scanMAX kinases with PoC < 10 [1]: 2

Structure (SMILES): CCC(C)(O)C#Cc1ccc2[nH]c3c(c2c1)-c1nc(N)ncc1CCC3 (stereo not shown) [compound 25, 1-(2-Amino-5,6,7,8-tetrahydropyrimido[4′,5′:3,4]cyclohepta[1,2-b]indol-11-yl)-3-methylpent-1-yn-3-ol]
- IC50 [9, 16]: < 0.02 µM

Structure (SMILES): COC(C)(C)C#Cc1ccc2[nH]c3c(c2c1)-c1nc(N)ncc1CCC3 [compound 20, 11-(3-Methoxy-3-methylbut-1-yn-1-yl)-5,6,7,8-tetrahydropyrimido[4′,5′:3,4]cyclohepta[1,2-b]indol-2-amine]
- # scanMAX kinases with PoC < 10 [1]: 11–14

Structure (SMILES): CC(C)C(O)C#Cc1ccc2[nH]c3c(c2c1)-c1nc(N)ncc1CC3 (stereo not shown) [compound 10, 1-(2-Amino-6,7-dihydro-5H-pyrimido[5,4-c]carbazol-10-yl)-4-methylpent-1-yn-3-ol]
- # scanMAX kinases with PoC < 10 [1]: 11

Structure (SMILES): Nc1ncc2c(n1)-c1c([nH]c3ccc(C#Cc4ccncc4)cc13)CC2 [compound 4, 10-(Pyridin-4-ylethynyl)-6,7-dihydro-5H-pyrimido[5,4-c]carbazol-2-amine]
- # scanMAX kinases with PoC < 10 [1]: 1

Structure (SMILES): Cn1cc(-c2ccc3[nH]c4c(c3c2)-c2nc(N)ncc2CCC4)cn1 [compound 13, 11-(1-Methyl-1H-pyrazol-4-yl)-5,6,7,8-tetrahydropyrimido[4′,5′:3,4]cyclohepta[1,2-b]indol-2-amine]
- # scanMAX kinases with PoC < 10 [1]: 8

Structure (SMILES): CC(C)(O)C#Cc1ccc2[nH]c3c(c2c1)-c1nc(N)ncc1CCCC3 [compound 2, 4-(2-Amino-6,7,8,9-tetrahydro-5H-pyrimido[4′,5′:3,4]cycloocta[1,2-b]indol-12-yl)-2-methylbut-3-yn-2-ol]
- # scanMAX kinases with PoC < 10 [1]: 3

Structure (SMILES): CC(O)C#Cc1ccc2[nH]c3c(c2c1)-c1nc(N)ncc1CCC3 (stereo not shown) [compound 21, 4-(2-Amino-5,6,7,8-tetrahydropyrimido[4′,5′:3,4]cyclohepta[1,2-b]indol-11-yl)but-3-yn-2-ol]
- IC50 [9, 16]: < 0.02 µM

Structure (SMILES): CCC(O)(C#Cc1ccc2[nH]c3c(c2c1)-c1nc(N)ncc1CCC3)CC [compound 26, 1-(2-Amino-5,6,7,8-tetrahydropyrimido[4′,5′:3,4]cyclohepta[1,2-b]indol-11-yl)-3-ethylpent-1-yn-3-ol]
- IC50 [13]: 0.0741 µM
- IC50 [9, 16]: < 0.02 µM
- IC50 ([14]; Severe acute respiratory syndrome coronavirus 2, A549-ACE2, 46 h, read-out: SARS-CoV-2 replication IC50): 0.0239 µM

Structure (SMILES): Nc1ncc2c(n1)-c1c([nH]c3ccc(C4CC4)cc13)CCCC2 [compound 30, 12-Cyclopropyl-6,7,8,9-tetrahydro-5H-pyrimido[4′,5′:3,4]cycloocta[1,2-b]indol-2-amine]
- entry of lentivirus pseudotyped with SARS-CoV-2 spike glycoprotein [4]: did not inhibit pseudoviral entry
- entry of bald lentivirus [5]: entry of bald lentivirus was not impacted
- # scanMAX kinases with PoC < 10 [1]: 1
- toxicity to A549-ACE2 cells [15]: did not inhibit SARS-CoV-2 replication or elicit any toxicity
- effect on cell viability in DBT cells [6]: nontoxic up to 10 μM
- inhibition of viral replication (MHV-nLuc), in words [13]: failed to inhibit viral replication
- IC50 [13]: 10 µM
- His6-SARS-CoV-2 spike protein uptake [8]: no effect on spike protein uptake
- inhibition of SARS-CoV-2 replication, in words ([14]; A549-ACE2 cells): did not inhibit SARS-CoV-2 replication

Structure (SMILES): CCC(=O)Nc1cc(Nc2cc(NC3CC3)n3ncc(C#N)c3n2)ccc1C [SGC-CK2-1, reference compound]
- His6-SARS-CoV-2 spike protein uptake [8]: efficiently decreased spike protein uptake

Structure (SMILES): Nc1ncc2c(n1)-c1c([nH]c3ccc(C#Cc4ccncc4)cc13)CCC2 [compound 5, 11-(Pyridin-4-ylethynyl)-5,6,7,8-tetrahydropyrimido[4′,5′:3,4]cyclohepta[1,2-b]indol-2-amine]
- # scanMAX kinases with PoC < 10 [1]: 5

Structure (SMILES): CC(C)(O)C#Cc1ccc2[nH]c3c(c2c1)-c1nc(N)ncc1CC3 [compound 1, 4-(2-Amino-6,7-dihydro-5H-pyrimido[5,4-c]carbazol-10-yl)-2-methylbut-3-yn-2-ol]
- # scanMAX kinases with PoC < 10 [1]: 20
